Among the data in ChEMBL document CHEMBL1201862, “PubChem BioAssay data set” (2004) are CC50, IC50 and AC50 values, retold here.

A short description of test [1]: microbe, parasite or virus in culture. Format: functional. Particulars: Mycobacterium tuberculosis.
The nature of test [2]: IC50 of insulin release inhibition, rat insulinoma INS-1E line, 5 mM glucose, cell-based (AID 1117331). Format: functional.
Test [3] can be described thus: cells. Particulars: INS-1E. Format: functional, cell-based.
Test [4] in a line: glucagon-like peptide-1 release potency in STC-1, concentration-response, half-maximal inhibitory concentration in the STC-1 line (AID 1117345). Format: functional, cell-based.
The nature of test [5]: Potency on glucagon-like peptide 1 release, dose-response in NCI-H716 cell line, half maximal inhibitory concentration (AID 1117344). Format: functional, cell-based.
The target in test [6] is Intestinal-type alkaline phosphatase (Mus musculus, UniProt P24822). The experiment in a line: PubChem AID 488785. Format: functional.
Test [7] concerns the target T1, Alkaline phosphatase, tissue-nonspecific isozyme (Homo sapiens, UniProt P05186).
T1 sequence (P05186 whole entry): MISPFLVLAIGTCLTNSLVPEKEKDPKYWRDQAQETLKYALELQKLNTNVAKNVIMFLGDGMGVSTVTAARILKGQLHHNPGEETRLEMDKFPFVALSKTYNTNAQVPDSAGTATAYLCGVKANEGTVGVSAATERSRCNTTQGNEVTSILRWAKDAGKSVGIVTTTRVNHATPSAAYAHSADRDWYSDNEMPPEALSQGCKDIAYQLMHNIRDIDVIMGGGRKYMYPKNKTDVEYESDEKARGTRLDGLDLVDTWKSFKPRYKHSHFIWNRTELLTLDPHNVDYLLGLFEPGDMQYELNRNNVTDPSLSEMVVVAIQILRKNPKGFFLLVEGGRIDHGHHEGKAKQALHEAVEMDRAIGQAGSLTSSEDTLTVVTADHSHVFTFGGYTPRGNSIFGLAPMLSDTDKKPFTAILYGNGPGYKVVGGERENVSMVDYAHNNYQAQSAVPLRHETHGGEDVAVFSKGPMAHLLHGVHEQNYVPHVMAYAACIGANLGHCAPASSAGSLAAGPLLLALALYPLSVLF
Briefly: TNAP enzyme inhibition by screening hits, dose response, selectivity assay for mouse IAP inhibitor project, biochemical, human TNAP, uHTS hits (AID 488906). Format: functional.

Test [8] addresses Intestinal-type alkaline phosphatase (Homo sapiens, UniProt P09923). Briefly: inhibition of human intestinal alkaline phosphatase – biochemical, dose response (AID 488876). Format: functional.
For test [9], the target named is T2, Methionyl-tRNA synthetase, putative (Trypanosoma brucei brucei, UniProt Q38C91).
T2 sequence (Q38C91 whole entry): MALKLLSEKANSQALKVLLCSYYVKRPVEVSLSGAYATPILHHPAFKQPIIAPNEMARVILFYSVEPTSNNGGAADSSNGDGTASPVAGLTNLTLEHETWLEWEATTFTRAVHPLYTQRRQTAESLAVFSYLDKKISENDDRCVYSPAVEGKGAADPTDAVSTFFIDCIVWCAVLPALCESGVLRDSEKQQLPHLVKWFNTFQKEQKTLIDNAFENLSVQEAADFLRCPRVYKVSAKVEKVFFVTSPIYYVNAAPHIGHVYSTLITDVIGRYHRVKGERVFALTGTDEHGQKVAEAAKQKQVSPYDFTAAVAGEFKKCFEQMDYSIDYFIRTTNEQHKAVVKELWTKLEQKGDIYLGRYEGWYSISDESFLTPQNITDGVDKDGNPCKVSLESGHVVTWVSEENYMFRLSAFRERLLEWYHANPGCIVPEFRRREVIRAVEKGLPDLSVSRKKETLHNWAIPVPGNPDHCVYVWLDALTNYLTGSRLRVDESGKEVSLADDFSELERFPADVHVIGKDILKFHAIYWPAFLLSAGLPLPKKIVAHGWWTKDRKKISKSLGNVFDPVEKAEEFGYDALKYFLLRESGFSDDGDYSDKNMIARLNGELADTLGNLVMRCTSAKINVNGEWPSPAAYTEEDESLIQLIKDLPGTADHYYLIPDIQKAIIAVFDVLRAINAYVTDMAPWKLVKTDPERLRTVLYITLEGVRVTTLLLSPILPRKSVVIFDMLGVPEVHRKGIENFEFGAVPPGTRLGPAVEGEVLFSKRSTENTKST
Format: functional, Trypanosoma brucei brucei strain 927/4 GUTat10.1.

The nature of test [10]: Counterscreen for inhibitors of Trypanosoma brucei methionyl tRNA synthetase (MetRS): Luminescence-based cell-based high throughput dose response assay to identify compounds that are cytotoxic to Jurkat human T lymphocyte cells. Format: functional. Background: The purpose of a counterscreen is to sort out artefacts and off-target activity.
The target in test [11] is T2, Methionyl-tRNA synthetase, putative. Format: functional, Trypanosoma brucei brucei strain 927/4 GUTat10.1. This is another data set of the same source.
Test [12] is described as follows: potency of ADAM10 substrate cleavage blockers – biochemical, QFRET, dose response (AID 743254).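 Also: ADAM10 enzyme with the DM2 quenched FRET peptide as substrate; EDANS fluorescence gain as the protease cuts the substrate; inhibitor potency against ADAM10 proteolytic activity.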
The target in test [13] is Disintegrin and metalloproteinase domain-containing protein 17 (Homo sapiens, UniProt P78536). Briefly: inhibition of ADAM17 substrate cleavage – biochemical, quenched FRET substrate, counter-screen for ADAM10 exosite inhibitor project, dose response (AID 743253).
Test [14] is described as follows: Dd2 parasite growth inhibition in erythrocytes – SYBR Green, dry powder samples, set 9, dose response (AID 1159568). Format: functional, cell-based.
Test [15] in a line: BioA aminotransferase inhibition, coupled fluorescent readout – biochemical, coupled fluorescence displacement, 20-point, dry powder, dose response (AID 743357). Format: functional.
Test [16] can be described thus: viability loss in HepG2 liver cells – cell-based, luminescence, dry powder, set 9, cytotoxicity control, dose response (AID 743358). Format: functional.
The target of test [17] is NAD-dependent protein deacylase sirtuin-5, mitochondrial (Homo sapiens, UniProt Q9NXA8). Briefly: sirtuin-5 deacylation blockers, concentration series – biochemical, fluorescence imaging, cherry-pick, set 5, dose response (AID 720591).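 Also: desuccinylation of succinyl peptide AMC substrate read as fluorescence after trypsin release; potency of inhibitors that lower fluorescence and may act on trypsin instead.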

Activity calls are given as the source filed them.

Sequence of Intestinal-type alkaline phosphatase (Mus musculus, UniProt P24822) (P24822 whole entry): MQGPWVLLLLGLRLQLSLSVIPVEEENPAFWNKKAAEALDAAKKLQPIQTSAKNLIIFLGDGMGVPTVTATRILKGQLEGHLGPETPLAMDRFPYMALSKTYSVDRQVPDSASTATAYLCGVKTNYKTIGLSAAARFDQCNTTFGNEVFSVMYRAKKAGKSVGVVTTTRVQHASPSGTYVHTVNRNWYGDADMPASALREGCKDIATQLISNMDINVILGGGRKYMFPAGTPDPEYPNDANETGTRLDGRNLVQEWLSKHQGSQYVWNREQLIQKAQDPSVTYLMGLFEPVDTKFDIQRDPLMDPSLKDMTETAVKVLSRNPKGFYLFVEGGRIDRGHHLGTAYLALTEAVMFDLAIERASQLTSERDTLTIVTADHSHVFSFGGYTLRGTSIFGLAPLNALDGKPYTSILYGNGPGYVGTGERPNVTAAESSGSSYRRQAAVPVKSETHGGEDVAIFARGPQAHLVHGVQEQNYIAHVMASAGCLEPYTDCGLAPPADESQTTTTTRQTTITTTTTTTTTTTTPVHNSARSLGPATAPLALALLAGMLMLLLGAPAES
Sequence of Intestinal-type alkaline phosphatase (Homo sapiens, UniProt P09923) (P09923 whole entry): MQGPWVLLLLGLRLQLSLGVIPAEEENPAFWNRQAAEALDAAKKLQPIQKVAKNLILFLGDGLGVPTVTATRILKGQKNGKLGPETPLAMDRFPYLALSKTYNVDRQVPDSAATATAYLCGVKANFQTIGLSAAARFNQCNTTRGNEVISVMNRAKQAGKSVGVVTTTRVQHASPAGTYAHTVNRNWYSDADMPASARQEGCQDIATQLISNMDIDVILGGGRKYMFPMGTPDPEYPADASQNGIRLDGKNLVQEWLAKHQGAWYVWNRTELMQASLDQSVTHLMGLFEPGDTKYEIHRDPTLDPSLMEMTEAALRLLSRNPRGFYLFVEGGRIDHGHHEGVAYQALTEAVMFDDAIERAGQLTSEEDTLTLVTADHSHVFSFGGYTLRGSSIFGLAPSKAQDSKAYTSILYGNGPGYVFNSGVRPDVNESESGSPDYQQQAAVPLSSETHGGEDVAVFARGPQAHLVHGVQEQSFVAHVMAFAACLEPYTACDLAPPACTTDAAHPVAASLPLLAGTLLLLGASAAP
Sequence of NAD-dependent protein deacylase sirtuin-5, mitochondrial (Q9NXA8 whole entry): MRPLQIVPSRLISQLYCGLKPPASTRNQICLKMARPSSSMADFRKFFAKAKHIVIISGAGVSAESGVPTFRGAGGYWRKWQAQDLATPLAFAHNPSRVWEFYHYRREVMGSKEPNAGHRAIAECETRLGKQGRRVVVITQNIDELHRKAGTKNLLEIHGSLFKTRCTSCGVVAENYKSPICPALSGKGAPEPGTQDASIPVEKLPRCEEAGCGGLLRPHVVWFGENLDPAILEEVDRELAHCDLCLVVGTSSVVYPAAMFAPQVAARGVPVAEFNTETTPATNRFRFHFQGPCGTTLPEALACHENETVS
Sequence of Disintegrin and metalloproteinase domain-containing protein 17 (P78536 whole entry, the tested form may be a part): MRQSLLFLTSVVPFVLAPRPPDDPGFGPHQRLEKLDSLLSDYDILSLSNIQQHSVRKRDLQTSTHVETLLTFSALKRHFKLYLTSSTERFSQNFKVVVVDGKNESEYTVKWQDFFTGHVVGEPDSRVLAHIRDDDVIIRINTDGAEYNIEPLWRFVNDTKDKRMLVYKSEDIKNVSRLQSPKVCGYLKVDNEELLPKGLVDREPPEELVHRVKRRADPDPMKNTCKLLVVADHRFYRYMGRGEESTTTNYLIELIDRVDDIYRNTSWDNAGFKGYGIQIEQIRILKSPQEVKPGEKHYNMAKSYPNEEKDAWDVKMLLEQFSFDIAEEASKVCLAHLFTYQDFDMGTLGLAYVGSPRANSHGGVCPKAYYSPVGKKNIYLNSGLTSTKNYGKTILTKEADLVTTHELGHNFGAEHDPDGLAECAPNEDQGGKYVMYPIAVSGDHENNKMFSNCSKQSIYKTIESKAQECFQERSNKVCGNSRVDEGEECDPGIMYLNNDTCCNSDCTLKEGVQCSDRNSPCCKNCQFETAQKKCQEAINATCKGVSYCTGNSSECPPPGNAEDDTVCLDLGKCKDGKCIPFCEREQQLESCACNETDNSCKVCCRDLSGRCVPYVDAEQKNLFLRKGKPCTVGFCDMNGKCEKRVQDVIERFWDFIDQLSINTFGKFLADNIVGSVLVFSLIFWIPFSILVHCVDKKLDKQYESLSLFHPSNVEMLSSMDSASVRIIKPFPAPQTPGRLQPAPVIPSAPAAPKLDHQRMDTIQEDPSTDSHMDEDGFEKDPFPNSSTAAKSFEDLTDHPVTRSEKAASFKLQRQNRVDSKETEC

With `Clc1ccc2c(c1)CCc1cccnc1C2=C1CCNCC1` [DESLORATADINE], the CC50 in test [1] is 32.9 µM (active). The IC50 (as a rule, the concentration that inhibits the measured activity by half) was 7.11 µM (inactive) in [2], > 33.3 µM (inactive) in test [3], > 40 µM (inactive) in test [4] and > 40 µM (inactive) in test [5].
Regarding `CCc1cc(Cn2nc(-c3ccccc3)cc2C(=O)NCc2cccc(Br)c2)on1`, the IC50 in [6] was 12.9 µM (active); in test [7], 54.9 µM (active); in [8] it was > 100 µM (inactive); in [9], 2.93 µM (active); in [10] it was 83.3 µM (inactive); in test [11], 1.66 µM (active). Also, the IC50 in [12] and in [13] was > 69.5 µM (inactive) in each case.
In the case of `COc1ccc2c3c([nH]c2c1)[C@H](CO)N(Cc1ccccc1)CC31CN(C(=O)c2ccccn2)C1`, in test [14], the AC50 (in general, the midpoint of the concentration-response curve, whichever way the signal moves) is 6.79 µM (active).
Consider `CC(C)NC(=O)N1CC[C@@H]2[C@@H](CO)N(C)c3ccc(-c4cccc(F)c4)cc3[C@@H]21`, for which the AC50 was 11.8 µM (active) in test [15] and > 52 µM (inactive) in test [16].
In the case of `CCOC(=O)c1cnc(-n2nc(C)cc2C)nc1Oc1ccccc1F`, the AC50 in test [17] was > 30 µM (inactive).
